Tests used:
[1] = system: heart rate; conditions: same or lower dose than used in clinical studies for organ transplantation and multiple sclerosis; cited from earlier work
[2] = biological target: T1, Pak1 purified from cardiac muscle (Bos taurus, UniProt Q08E52); test: Pak1 kinase assay (autophosphorylation, [γ32P] ATP, autoradiography); format: biochemical, bovine; conditions: for autophosphorylation of Pak1: concentration not given
T1 construct: from tissue; host or cells: bovine ventricle (cardiac) muscle
Procedure: Preparation of Muscle Sample. Frozen bovine ventricle muscle (200 g) was cut into small pieces and homogenized in a blender containing 1 liter homogenization buffer (50 mM Tris base, 5 mM EDTA, 2 mM EGTA, 1 mM DTT, 0.5 mM benzamidine, 0.1 mM PMSF, pH 7.2). The homogenized muscle sample was centrifuged at 4500 g for 30 minutes. The supernatant fraction was saved and precipitated with ammonium sulfate (NH4)2SO4 at concentration 25% and 50% (w/v). Precipitates formed by (NH4)2SO4 addition between concentration 25% (w/v) and 50% (w/v) were saved and dialyzed against the homogenization buffer. After dialysis, the sample was filtered and lyophilized. For purification of Pak1 from smaller amounts of sample, the tissues or cells were homogenized in mammalian extraction buffer (50 mM Tris, pH 7.5; 150 mM NaCl; 0.1% Nonide P40; Complete Protease inhibitor cocktail tablets [Roche Diagnostics, cat # 11 873 580 001]). The ratio of tissue:buffer was about 1:5 (v/v). The homogenate was centrifuged in a bench-top centrifuge at 4° C. The supernatant fraction was saved for direct application onto the affinity column.
Affinity Chromatography. The column was first washed with 20 ml equilibration buffer (20 mM Tris, pH 7.5; 0.1 M NaCl; 0.1 mM EDTA). Decoy peptide (3 mg) was applied to the column to saturate the matrix with the peptide. The muscle sample (the lyophilized extract) was dissolved in buffer (20 mM Tris, pH 7.5; 0.1 M NaCl; 0.1 mM EDTA) containing protease inhibitor cocktail tablets. The sample was loaded onto the affinity column and then washed with 20 ml washing buffer (20 mM Tris, pH 7.5; 0.1 M NaCl; 0.1 mM EDTA; 0.05% Tween-20). The Pak1 bound to the gel was eluted with equilibration buffer containing HA peptide ([…]) (SEQ ID NO: 2) at 1 mg/ml. HA peptide was removed from the sample by dialysis in buffer containing 20 mM HEPES, 5 mM NaCl, pH 7.2. The bound Pak1 could also be eluted with 5 ml glycine buffer, pH 2.5 (50 mM glycine-HCl; 0.1% Triton X-100; 0.15 M NaCl).
Kinase Assay. Pak1 kinase activity was assayed in the following reaction buffer: 50 mM HEPES, pH 7.3, 10 mM MgCl2, 1 mM DTT, 0.05% Triton X-100) with 10 μCi of [γ32P] ATP (Perkin Elma. [γ-32P]-Adenosine 5′-triphosphate, Specific Activity: 3000 Ci (111TBq)/mmole, 50 mM Tricine (pH 7.6), Concentration: 5 mCi/mL, Catal NEG502H250UC) at 37° C. for 2 h. The kinase reaction was stopped by adding SDS sample buffer followed by boiling for 5 min. In view of reports of sphingosine-1 inducing an increase in Pak1 and Pak2 activity in vitro (Bokoch 1998, p 8137-8144; Roig 2001, p 195-199), the effect of sphingosine and sphingosine-1 phosphate on Pak1 autophosphorylation was also tested (FIG. 3A). The tested agonists (obtained from Calbiochem) included the following: C2 ceramide (N-acetyl-D-erythro-sphingosine), C6 ceramide (N-Hexanoyl-D-erythro-sphingosine) and safingol (Dihydro-L-threo-sphingosine). D-sphingosine (S 6879) and sphingosine 1-phosphate (S 9666) were purchased from Sigma. Sphingosines were dissolved in DMSO. The total reaction volume was 20 μl. DMSO (2 μl) was included in each reaction including the control. Incorporation of 32P from gamma 32P into Pak1 was directly detected by autoradiography after resolve the in vitro reaction products on SDS PAGE. […] When the sphingosine phosphate concentration increased to 100 and 200 μM, there was an increase in Pak1 autophosphorylation. In purified Pak1 sample, a 48 kD Pak1 degradation products can sometimes be detected (FIG. 1A, lane 3). When Pak1 activity increased, phosphorylation of the degradation products increased accordingly (FIG. 3).
Autophosphorylation of Pak1, which correlates with its activity, provided a measure of Pak-1 enzyme function. […] In all the in vitro assays, we used 4 μg of Pak1 protein. The smaller band (˜48 kD) that could be Pak1 degradation products was also phosphorylated. […] The decoy peptide contains Pak1 autophosphorylation sites. […]

[3] = system: cardiac troponin in cardiomyocytes / ventricle myocytes; test: Dephosphorylation of cardiac troponin in cardiomyocytes; format: cell-based
From the text: FTY720 is a structural analogue of sphingosine-1 and C2/C6-ceramide. […] Therefore, like C2- and C6-ceramides, FTY720 can serve as a β-blocker competitor for ischemic heart diseases including angina and systolic heart failure. The anti-(β) adrenergic effect of FTY720 is through activation of Pak1 in the heart. Our current observation further enforced by our previous work on Pak1 function related to heart diseases. Our studies also indicate that even better drug candidates can be designed or screened by testing their effects on Pak1 activation or inhibition using C2/C6 ceramides and FTY720 as prototypes.

[4] = system: heart; conditions: Furuya 2001; Lecour 2006; cited from earlier work
[5] = system: T-cells; conditions: O'Byrne 2000; cited from earlier work
[6] = system: L-type Ca2+ channel; conditions: different types of cells; Chik 1999, 2004; cited from earlier work
[7] = system: PP2A; conditions: Dobrowsky 1993; cited from earlier work
[8] = biological target: T2, decoy peptide (YNSKKTSNSQKYMSFTDKSA) (amino acids 131-150 of SEQ ID NO: 1)
T2 chain: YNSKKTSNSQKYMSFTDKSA

T1 sequence (Q08E52 whole entry): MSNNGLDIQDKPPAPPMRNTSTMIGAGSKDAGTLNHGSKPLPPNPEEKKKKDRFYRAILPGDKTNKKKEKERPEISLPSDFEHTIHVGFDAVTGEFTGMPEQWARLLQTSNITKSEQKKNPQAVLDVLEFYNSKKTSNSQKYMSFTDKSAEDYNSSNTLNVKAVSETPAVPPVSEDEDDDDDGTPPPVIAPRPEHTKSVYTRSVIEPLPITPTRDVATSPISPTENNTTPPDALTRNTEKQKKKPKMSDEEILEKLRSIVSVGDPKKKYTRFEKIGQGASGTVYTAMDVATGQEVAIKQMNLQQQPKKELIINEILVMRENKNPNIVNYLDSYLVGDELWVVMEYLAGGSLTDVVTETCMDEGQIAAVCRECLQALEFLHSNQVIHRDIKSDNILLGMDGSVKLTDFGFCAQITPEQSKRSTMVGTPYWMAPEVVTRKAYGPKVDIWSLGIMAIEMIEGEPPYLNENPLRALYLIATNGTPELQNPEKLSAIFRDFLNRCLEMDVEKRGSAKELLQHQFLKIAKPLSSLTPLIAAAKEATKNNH

## CCCCCCCCc1ccc(CCC(N)(CO)CO)cc1 [FTY720, fingolimod]
[1]
  cardiac effect (heart rate): decrease of heart rate

## CCCCCCCCCCCCC/C=C/[C@@H](O)[C@@H](N)CO [D-Sphingosine-1, D-erythro-sphingosine]
[2]; in the presence of 50 and 100 μM, 37° C., 2 h
  Autophosphorylation of the purified Pak1: increased

## YNSKKTSNSQKYMSFTDKSA [decoy peptide]
[2]; 37° C., 2 h
  autophosphorylation of Pak1: slightly inhibited
[2]; data not shown
  total kinase activity in the presence of the decoy peptide: slight increase

## CCCCCCCCCCCCCCC[C@H](O)[C@@H](N)CO [saphingol, Dihydro-L-threo-sphingosine]
[2]; 37° C., 2 h
  autophosphorylation of Pak1: only slightly regulated
[2]; 37° C., 2 h, listed as Saphingosine
  autophosphorylation of Pak1: small stimulatory effect

## CCCCCCCCCCCCC/C=C/[C@@H](O)[C@H](CO)NC(=O)CCCCC [C6 ceramide, N-Hexanoyl-D-erythro-sphingosine]
[3]
  dephosphorylation of cardiac troponin in cardiomyocytes: induces dephosphorylation
[2]
  effect activating Pak1 compared with sphingosine-1: stronger effect than sphingosine-1
[2]; 37° C., 2 h
  autophosphorylation of Pak1: highly responsive

## CCCCCCCCCCCCC/C=C/[C@@H](O)[C@@H](N)COP(=O)(O)O [sphingosine-1 phosphate, sphingosine 1-phosphate]
[2]; at 25 and 50 μM, 37° C., 2 h
  effect on autophosphorylation of Pak1: no significant effect
[2]; at 100 and 200 μM, 37° C., 2 h
  Pak1 autophosphorylation: increase

## CCCCCCCCCCCCC/C=C/[C@@H](O)[C@H](CO)NC(C)=O [C2 ceramide, N-acetyl-D-erythro-sphingosine]
[4]
  pre-conditioning effects in heart: pre-conditioning effects
[5]
  proliferation of T-cells stimulated by growth signals: inhibited proliferation
[3]
  dephosphorylation of cardiac troponin in cardiomyocytes: induces dephosphorylation
[2]
  effect activating Pak1 compared with sphingosine-1: stronger effect than sphingosine-1
[2]; 37° C., 2 h
  autophosphorylation of Pak1: highly responsive
[6]
  L-type Ca2+ channel activity: depressed
[7]
  PP2A activation: known activator

B1: Pak1 purified from bovine ventricle muscle (p21 activated kinase-1) (protein)
chain: SNNGLDIQDKPPAPPMRNTSTMIGAGSKDAGTLNHGSKPLPPNPEEKKKKDRFYRAILPGDKTNKKKEKERPEISLPSDFEHTIHVGFDAVTGEFTGMPEQWARLLQTSNITKSEQKKNPQAVLDVLEFYNSKKTSNSQKYMSFTDKSAEDYNSSNTLNVKAVSETPAVPPVSEDEDDDDDGTPPPVIAPRPEHTKSVYTRSVIEPLPITPTRDVATSPISPTENNTTPPDALTRNTEKQKKKPKMSDEEILEKLRSIVSVGDPKKKYTRFEKIGQGASGTVYTAMDVATGQEVAIKQMNLQQQPKKELIINEILVMRENKNPNIVNYLDSYLVGDELWVVMEYLAGGSLTDVVTETCMDEGQIAAVCRECLQALEFLHSNQVIHRDIKSDNILLGMDGSVKLTDFGFCAQITPEQSKRSTMVGTPYWMAPEVVTRKAYGPKVDIWSLGIMAIEMIEGEPPYLNENPLRALYLIATNGTPELQNPEKLSAIFRDFLNRCLEMDVEKRGSAKELLQHQFLKIAKPLSSLTPLIAAAKEATKNNH
[8]
  autophosphorylation of Pak1: The decoy peptide slightly inhibited autophosphorylation of Pak1

Reference: US20110152221A1, “PAK1 Agonists and Methods of Use” (THE BOARD OF TRUSTEES OF THE UNIVERSITY OF ILLINOIS, priority 2008, published 2011)
